ChEMBL document CHEMBL2021794, “Synthesis, σ₁, σ₂-receptors binding affinity and antiproliferative action of new C1-substituted adamantanes” (Bioorg Med Chem, 2012)
Active and inactive are the calls of the source. The rule behind the calls is not given here.

Key:
BXPC-3 [1] = test: Cell cycle arrest in human BxPC3 cells assessed as accumulation at < G1 phase at 15 uM after 24 hrs by propidium iodide staining based flow cytometry (reference value: 9%); format: functional
IGROV-1 [2] = test: Induction of apoptosis in human IGROV1 cells assessed as healthy cells at 50 uM after 24 hrs by Annexin V/7-AAD staining based flow cytometry (reference value: 86%); format: functional
SF-295 = test: Growth inhibition of human SF295 cells after 48 hrs by SRB assay; format: functional; settings: SF-295, 48 h
BXPC-3 [3] = test: Cell cycle arrest in human BxPC3 cells assessed as accumulation at G2 phase at 15 uM after 24 hrs by propidium iodide staining based flow cytometry (reference value: 12%); format: functional
OVCAR-5 = test: Growth inhibition of human OVCAR5 cells after 48 hrs by SRB assay; format: functional; settings: OVCAR-5, 48 h
SF-268 [4] = test: Growth inhibition of human SF268 cells after 48 hrs by SRB assay; format: functional; settings: SF-268, 48 h
HCT-15 = test: Cytotoxicity against human HCT15 cells after 48 hrs by trypan blue assay; format: functional, cell-based
[5] = (§1) Growth inhibition of NHDF cells after 48 hrs by SRB assay; format: cell-based; settings: human, NHDF cells
NHDF = test: as §1; format: cell-based; settings: human, nhdf, 48 h
PC-3 [6] = test: Induction of apoptosis in human PC3 cells assessed as cleaved caspase-3 containing cells at 15 uM after 24 hrs by FACS analysis (reference value: 3%); format: functional
BXPC-3 [7] = test: Antitumor activity against human BxPC3 cells xenografted in SCID mouse assessed as tumor weight at 40 mg/kg, ip for 5 consecutive days and 2 administrations for one more week (reference value: 723 +/- 45 mg); format: functional; settings: route intraperitoneal
IGROV-1 [8] = test: Induction of apoptosis in human IGROV1 cells assessed as total apoptotic death cells at 15 uM after 24 hrs by Annexin V/7-AAD staining based flow cytometry (reference value: 13%); format: functional
PC-3 [9] = test: Cell cycle arrest in human PC3 cells assessed as accumulation at >G2 phase at 15 uM after 24 hrs by propidium iodide staining based flow cytometry (reference value: 6%); format: functional
NCI-H460 = test: Growth inhibition of human NCI-H460 cells after 48 hrs by SRB assay; format: functional; settings: NCI-H460, 48 h
BXPC-3 [10] = test: Induction of apoptosis in human BxPC3 cells assessed as early apoptotic cells at 15 uM after 24 hrs by Annexin V/7-AAD staining based flow cytometry (reference value: 11%); format: functional
BXPC-3 [11] = test: Induction of apoptosis in human BxPC3 cells assessed as cleaved caspase-3 containing cells at 15 uM after 24 hrs by FACS analysis (reference value: 10%); format: functional
BXPC-3 [12] = test: Cell cycle arrest in human BxPC3 cells assessed as accumulation at G2 phase at 50 uM after 24 hrs by propidium iodide staining based flow cytometry (reference value: 12%); format: functional
PC-3 [13] = test: Cell cycle arrest in human PC3 cells assessed as accumulation at G1 phase at 15 uM after 24 hrs by propidium iodide staining based flow cytometry (reference value: 36%); format: functional
IGROV-1 [14] = test: Cell cycle arrest in human IGROV1 cells assessed as accumulation at >G2 phase at 0.5 uM after 24 hrs by propidium iodide staining based flow cytometry (reference value: 21%); format: functional
IGROV-1 [15] = test: Induction of apoptosis in human IGROV1 cells assessed as cleaved caspase-3 containing cells at 0.5 uM after 24 hrs by FACS analysis (reference value: 4%); format: functional
BXPC-3 [16] = test: Cell cycle arrest in human BxPC3 cells assessed as accumulation at G1 phase at 5 uM after 24 hrs by propidium iodide staining based flow cytometry (reference value: 41%); format: functional
PC-3 [17] = test: Cell cycle arrest in human PC3 cells assessed as accumulation at < G1 phase at 50 uM after 24 hrs by propidium iodide staining based flow cytometry (reference value: 4%); format: functional
LOX IMVI = test: Growth inhibition of human LOXIMVI cells after 48 hrs by SRB assay; format: functional
IGROV-1 [18] = test: Cell cycle arrest in human IGROV1 cells assessed as accumulation at G1 phase at 0.5 uM after 24 hrs by propidium iodide staining based flow cytometry (reference value: 27%); format: functional
PC-3 [19] = test: Growth inhibition of human PC3 cells after 48 hrs by SRB assay; format: functional; settings: PC-3, 48 h
PC-3 [20] = test: Induction of apoptosis in human PC3 cells assessed as early apoptotic cells at 50 uM after 24 hrs by Annexin V/7-AAD staining based flow cytometry (reference value: 5%); format: functional
PC-3 [21] = test: Cell cycle arrest in human PC3 cells assessed as accumulation at S phase at 50 uM after 24 hrs by propidium iodide staining based flow cytometry (reference value: 42%); format: functional
IGROV-1 [22] = test: Cell cycle arrest in human IGROV1 cells assessed as accumulation at S phase at 5 uM after 24 hrs by propidium iodide staining based flow cytometry (reference value: 29%); format: functional
BXPC-3 [23] = test: Induction of apoptosis in human BxPC3 cells assessed as early apoptotic cells at 50 uM after 24 hrs by Annexin V/7-AAD staining based flow cytometry (reference value: 11%); format: functional
IGROV-1 [24] = test: Induction of apoptosis in human IGROV1 cells assessed as late apoptotic cells at 50 uM after 24 hrs by Annexin V/7-AAD staining based flow cytometry (reference value: 4%); format: functional
BXPC-3 [25] = test: Cell cycle arrest in human BxPC3 cells assessed as accumulation at G1 phase at 15 uM after 24 hrs by propidium iodide staining based flow cytometry (reference value: 41%); format: functional
PC-3 [26] = test: Cell cycle arrest in human PC3 cells assessed as accumulation at G2 phase at 15 uM after 24 hrs by propidium iodide staining based flow cytometry (reference value: 13%); format: functional
IGROV-1 [27] = test: Induction of apoptosis in human IGROV1 cells assessed as late apoptotic cells at 0.5 uM after 24 hrs by Annexin V/7-AAD staining based flow cytometry (reference value: 4%); format: functional
SF-268 [28] = test: Cytotoxicity against human SF268 cells after 48 hrs by trypan blue assay; format: functional, cell-based
IGROV-1 [29] = test: Cytotoxicity against human IGROV1 cells at 50 uM; format: functional, cell-based
PC-3 [30] = test: Induction of apoptosis in human PC3 cells assessed as healthy cells at 0.5 uM after 24 hrs by Annexin V/7-AAD staining based flow cytometry (reference value: 92%); format: functional
IGROV-1 [31] = test: Cell cycle arrest in human IGROV1 cells assessed as accumulation at < G1 phase at 0.5 uM after 24 hrs by propidium iodide staining based flow cytometry (reference value: 4%); format: functional
PC-3 [32] = test: Induction of apoptosis in human PC3 cells assessed as total apoptotic death cells at 5 uM after 24 hrs by Annexin V/7-AAD staining based flow cytometry (reference value: 7%); format: functional
[33] = read-out: LC50 (the source's name)

CN1CCN(c2ccc(C(c3ccccc3)C34CC5CC(CC(C5)C3)C4)cc2)CC1 (stereo unspecified)
Activity (BXPC-3 [1]): 8%
Activity (IGROV-1 [2]): 31%
GI50 (SF-295): 11 µM
TGI (SF-295): 48.1 µM
CC50 (SF-295; [33]): 85.2 µM
Activity (BXPC-3 [3]): 16%
GI50 (OVCAR-5): 8 µM
TGI (OVCAR-5): 41.9 µM
CC50 (OVCAR-5; [33]): 94.5 µM
GI50 (SF-268 [4]): 18.9 µM
TGI (SF-268 [4]): 61.6 µM
CC50 (SF-268 [4]; [33]): 100 µM
Activity (HCT-15): Active
GI50 at 48 h [5]: 5.3 µM
LC50 (NHDF): 100 µM
TGI (NHDF): 9.6 µM
Activity (PC-3 [6]): 3%
Activity (BXPC-3 [7]): 690 mg
Activity (IGROV-1 [8]): 33%
Activity (PC-3 [9]): 5%
GI50 (NCI-H460): 4.41 µM
LC50 (concentration killing 50% of cells) (NCI-H460): 100 µM
TGI (NCI-H460): 7.66 µM
Activity (BXPC-3 [10]): 12%
Activity (BXPC-3 [11]): 11%
Activity (BXPC-3 [12]): 13%
Activity (PC-3 [13]): 49%
Activity (IGROV-1 [14]): 20%
Activity (IGROV-1 [15]): 5%
Activity (BXPC-3 [16]): 43%
Activity (PC-3 [17]): 10%
GI50 (LOX IMVI): 3.36 µM
LC50 (concentration killing 50% of cells) (LOX IMVI): 8.41 µM
TGI (LOX IMVI): 5.88 µM
Activity (IGROV-1 [18]): 26%
GI50 (PC-3 [19]): 6.8 µM
TGI (PC-3 [19]): 32.9 µM
CC50 (PC-3 [19]; [33]): 100 µM
Activity (PC-3 [20]): 24%
Activity (PC-3 [21]): 34%
Activity (IGROV-1 [22]): 29%
Activity (BXPC-3 [23]): 15%
Activity (IGROV-1 [24]): 16%
Activity (BXPC-3 [25]): 51%
Activity (PC-3 [26]): 9%
Activity (IGROV-1 [27]): 3%
Activity (SF-268 [28]): Active
Activity (IGROV-1 [29]): Active
Activity (PC-3 [30]): 95%
Activity (IGROV-1 [31]): 3%
Activity (PC-3 [32]): 7%
